Experimental data published in patent US20200282019A1, “METHODS OF TREATING NEURODEGENERATIVE DISEASES” (priority 2017, published 2020).
“Also recorded” adds a separate entry of the source.

Legend:
[1] = test system: phosphorylated Tau protein at the site of pThr231; assay: Aβ42-induced Tau phosphorylation at Thr231, Western blot in cultured primary neurons; format: cell-based
Description: The cells were harvested and homogenized for Western blot assay. The inventors used an antibody specific to phosphorylated Tau protein at the site of pThr231 (Pierce-antibody OPA1-03156).

[2] = test system: BACE1; assay: BACE1 expression after PACAP treatment; format: cell-based, APP-transgenic mice
Description: PACAP38 is the full length active peptide.
(§1) As the amyloid accumulation in AD was contributed by amyloid precursor protein (APP) cleaved by overactive β-secretase (BACE1) and subsequently by γ-secretase, the desirable therapeutic goal is to inhibit BACE1 and/or γ-secretase, while enhancing α-secretase. The inventors used APP-transgenic mice pups to establish cortical neuronal culture with the method that the inventors previously published (Han et al 2014, Neurobiology of Aging). At 14 days, the inventors added PACAP and treated for 72 hours. Then the cells were harvest for BACE1, ADAMS, or other ELISA-based Assays.

[3] = test system: cultured neurons; assay: Excitatory Postsynaptic Currents (EPSCs), Patch Clamp recording in cultured neurons; format: cell-based; settings: for average EPSCs: control 21±5 pA
Procedure: (§2) FIG. 12 depicts, in accordance with embodiments herein, the impact of PACAP's administration on synapses. […] Cultured neurons were treated with either nothing (top left), Aβ42 (top middle) or PACAP with Aβ42 (top right). Bottom panel: PACAP enhances synaptic transmissions (EPSCs frequency and amplitude) in cultured neuronal network.
(§3) Furthermore, PACAP increased the frequency and amplitude of Excitatory Postsynaptic Currents (EPSCs) in cultured neurons without Aβ in the media (FIG. 12 bottom panel). The average EPSCs was 21±5 pA in control (n=7 cells), which was increased to 31±3 pA (n=9 cells) if the cultured neurons were pretreated with PACAP (20 nM) for 72 hours before Patch Clamp recording (p<0.05, one way ANOVA with posthoc Tukey test). PACAP6-38, the truncated non-active version mixed with PACAP38 blocked the effect of PACAP, resulting in an average EPSCs of 24±3 pA (n=6).

[4] = test system: APP transgenic mice; assay: Thioflavin-S dense core amyloid plaques in hippocampal region after intranasal PACAP; format: in vivo
Procedure: FIG. 13 depicts, in accordance with embodiments herein, the impact of PACAP's administration on plaques in APP transgenic mice in that PACAP reduces dense core amyloid plaque size. A: a typical amyloid plaque in the hippocampal region of an untreated APP transgenic mouse at 9 month age. Bar=20 μM. B: an amyloid plaque in the hippocampal region from an APP transgenic mouse (9 month) after intranasal PACAP treatment. Bar=20 μM.
(§4) The inventors gave intranasal PACAP treatment to a group of APP transgenic mice and their wild-type littermates. Starting from the age of 6 months, these groups of mice were given bilateral nostril injection of PACAP (0.1 μg/μl, 3 μl per nostril) three times per week for eight continuous weeks. The injection procedure was described by Nonako et al 2012. At the age of 9 months, the inventors sacrificed the mice and examined amyloid plaques in the hippocampal regions using thioflavin-S staining and photographed under fluorescent microscope. These thioflavin-S positive dense core plaques are associated with deleterious effects whereas thioflavin-S negative diffusive amyloid plaques are non-detrimental and often associated with cognitive normal elderly individuals (Serrano-Pozo et al., 2011).

[5] = test system: BACE1; assay: BACE1 FRET activity assay (Michaelis-Menten) on PACAP-treated cortical neuronal culture; format: cell-based, APP-transgenic mice; settings: PACAP treatment
Procedure: FIG. 7 depicts, in accordance with embodiments herein, that PACAP inhibits BACE1 activity. Left panel: BACE1 activity kinetic was measured and fitted with Michaelis-Menten Model. […] Right panel: steady state endpoint fluorescent units (RFU). Note PACAP reduces the end product by BACE1.
as §1
The inventors measured BACE1 activity using a BACE1 FRET assay kit (Panvera, Life technologies) with a customized protocol. The artificial substrate of BACE1 is a short peptide with a rhodamine-derived fluorescent donor coupled to a quenching acceptor (Rh-[…]-Quencher). Upon cleavage by BACE1, the rhodamine donor is released from quencher and emitted fluorescence detected under a wavelength of Ex/Em=545/585 nm. […]

[6] = test system: APP transgenic mice; assay: Morris Water Maze (MWM) in APP mice after intranasal PACAP; format: in vivo; settings: APP mice at 10 months
Procedure: (A) APP mice were either treated with intranasal PACAP (n=4) or treated with intranasal saline (n=4). (B) WT mice were either treated with intranasal PACAP (n=3) or saline (n=3).
as §4
In APP mice, DI change was −110% (n=4), indicating deterioration on cognitive function from 6-9 month (without PACAP treatment). PACAP treatment slows the declining rate as the DI change was −40% in PACAP-treated APP mice group (n=4). Furthermore, the inventors tested the mice in the Morris Water Maze (MWM), which is a behavior test used to examine the spatial recognition and memory function of mice. […]

[7] = test system: cultured neurons; assay: Neurite integrity / Aβ-induced synaptic degeneration in cultured neurons; format: cell-based; settings: PACAP with Aβ42
Procedure: as §2, §3

[8] = test system: primary cortical neuron cultures; assay: Aβ-induced toxicity, MTT cell survival in primary cortical neuron cultures; format: cell-based, mice; settings: for cell survival (MTT, control cells normalized to 100%): overnight
Procedure: The inventors applied three different doses of Aβ overnight to primary cortical neuron cultures obtained from neonatal mice and examined cell survival using the MTT chemiluminescent assay (FIG. 6). The MTT value of control cells (no Aβ added) was normalized to 100% and all other MTT values of cells incubated with Aβ were presented as a percentage of survival.

[9] = test system: phosphorylated Tau protein at the site of 422; assay: Aβ42-induced Tau phosphorylation at site 422, In-Cell Western in cultured primary neurons; format: cell-based
Procedure: The cells were fixed in 96 wells plate for In-Cell Western assay. The inventors used an antibody specific to phosphorylated Tau protein at the site of 422 and Tau5 antibody for total Tau quantification. pTau/total Tau ratio was calculated and compared. […] Okadaic acid (OA) is a potent phosphatase inhibitor to test maximal pTau capacity.
Because Tau hyperphosphorylation is contingent upon Aβ, this in vitro model best epitomizes AD pathogenesis and can differentiate AD from other tauopathy (FTLD, PDD, etc). […] Meanwhile, PACAP38 (lane 4) reduced Aβ-induced Tau phosphorylation and the phosphorylated Tau to actin ratio was 0.5. […] In addition to the phosphorylation site at Thr231 of Tau, the inventors tested pTau 422 using an in-cell Western approach on cultured cells (FIG. 11). PACAP (50 nM) reduces pTau422 by 40%.

[10] = test system: hTau transgenic mice; assay: Morris Water Maze in hTau transgenic mice after intranasal PACAP; format: in vivo; settings: hTau mice at 10 months, intranasal PACAP 0.1 μg/μl, 3 μl per nostril, 3 times a week, 8 weeks
Procedure: The inventors gave intranasal PACAP treatment for a group of hTau transgenic mice and their WT littermates. Starting from the age of 6 months, these groups of mice were given bilateral nostril injection of PACAP (0.1 μg/μl, 3 μl per nostril) 3 times a week for a continuous 8 weeks. Human Tau mice are appropriate model to test Tau phosphorylation and its pathological consequence. In this strain (B6.Cg-Mapttml(EGFP)Klt Tg(MAPT)8cPdav/J, Jackson lab), the intrinsic mice tau was disrupted by inserting eGFP sequence to the first exon of mice tau, but all 6 isoforms of human Tau (both 3R and 4R) were knocked in. The hTau mice show age dependent accumulation of hyperphosphorylated and aggregated tau in cortex and hippocampus, neuronal loss, and cognitive decline. The inventors tested the mice in Morris Water Maze, which is a behavior test approach to examine the spatial recognition and memory function of mice. […] Taken together, PACAP nasal injection decreases AD pathology and improves cognitive performance in two animal models of AD.

[11] = test system: APP transgenic mice and wild-type littermates; assay: Novel Objects Recognition (NOR) test after intranasal PACAP; format: in vivo; settings: PACAP-treated WT mice
Procedure: as §4
Next, the inventors performed the Novel Objects Recognition (NOR) test. Briefly, the mice were acclimatized to a square chamber, then two identical objects were placed in the chamber on the second day. On the third day, one of the objects was replaced with a novel object. It is a natural behavior to take more time to explore the new object. The discriminating capacity on the new object vs the old object was calculated as discrimination index (DI) as follows:
In APP mice, DI change was −110% (n=4), indicating deterioration on cognitive function from 6-9 month (without PACAP treatment). […]

Question: For PACAP6-38 [reference compound], which “effect on PACAP reduction of pTau231” value ([1]; PACAP6-38 (2 μM) with PACAP38 (50 nM) and Aβ42, lane 3) is on record?
Answer: offsetting the effect of PACAP

Question: What about the “effect of PAC1 receptor blocker on BACE1 reduction by PACAP” value ([2]; PACAP6-38 with PACAP) of the same substance?
Answer: antagonized the BACE1 reduction effect of PACAP

Question: And the “effect on PACAP enhancement of synaptic transmissions” value ([3]; PAC1 receptor antagonist with PACAP)?
Answer: blocks the enhancement

Question: What about the “average EPSCs” value ([3]; PACAP6-38 mixed with PACAP38) of the same substance?
Answer: 24±3 pA

Question: “Pituitary Adenylate Cyclase Activating Polypeptide [PACAP]” was tested. Which “dense core amyloid plaque size (average core diameter)” value ([4]; intranasal PACAP 0.1 μg/μl, 3 μl per nostril, three times per week, eight weeks from 6 months, examined at 9 months) did it give?
Answer: smaller size; also recorded: significantly reduced

Question: And the “number of amyloid plaques” value ([4]; intranasal PACAP, APP transgenic mice, 9 month)?
Answer: did not significant change

Question: And the “steady state endpoint fluorescent units (RFU), end product by BACE1” value [5]?
Answer: reduces

Question: And the MWM performance [6]?
Answer: prevents the deterioration

Question: And the “phosphorylated Tau (pTau231) to actin ratio” value ([1]; PACAP38 (50 nM) added 24 hours after Aβ42 (0.5 μM), 48 hours, lane 4, non-treated 0.25)?
Answer: 0.5

Question: And the BACE1 expression ([2]; PACAP38 full length peptide)?
Answer: reduces BACE1 expression

Question: And the “frequency and amplitude of EPSCs” value ([3]; cultured neurons without Aβ in the media)?
Answer: increased; also recorded: enhances

Question: And the “average EPSCs” value ([3]; pretreated with PACAP (20 nM) 72 hours, no Aβ)?
Answer: 31±3 pA

Question: And the “neurite integrity / Aβ-induced synaptic degeneration” value [7]?
Answer: protects Aβ-induced synaptic degeneration; also recorded: protects Aβ induced synaptic degeneration; also recorded: protects neurite integrity

Question: What about the “PACAP concentration that effectively protects against Aβ42 toxicity” value ([8]; Aβ42 1 μM, cultured mouse cortical neurons) of the same substance?
Answer: ≥ 50 nM

Question: And the “cell survival (MTT, control cells normalized to 100%)” value ([8]; PACAP 50 nM added at the same time as 1 μM Aβ)?
Answer: 79±5%

Question: And the “cell survival (MTT, control cells normalized to 100%)” value ([8]; PACAP 100 nM added at the same time as 1 μM Aβ)?
Answer: 87±4%

Question: And the “reduction of pTau422” value ([9]; PACAP 50 nM, Aβ42 (0.25 μM) treated cells)?
Answer: 40%

Question: And the “pTau/total Tau ratio” value ([9]; PACAP by itself, without Aβ42)?
Answer: did not change Tau phosphorylation

Question: What about the “reduction of pTau422” value ([9]; low dose PACAP 10 nM, Aβ42 treated cells) of the same substance?
Answer: marginal effect

Question: And the MWM performance [10]?
Answer: prevented the deterioration

Question: What about the “discrimination index (DI) change” value [11] of the same substance?
Answer: positively changed
